Key:
[1] = test system: SKW-3 A5.5 TCR cells; experiment: CD69 upregulation, SKW-3 A5.5 TCR cells; assay type: cell-based, human;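 on Geometric CD3: measured on live single GFP+ RFP+ cells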
Method: (§1) For TCR transduced SKW-3 T cell lines (SKW-3-TCR), response to antigen was determined using flow cytometry to assess the level of upregulation of the T cell activation marker CD69. One hundred thousand BLCL 9031 cells (HLA-DQ8 + : HLA-DQA*03:01:01, HLA-DQB1*03:02) as APCs were incubated at 37 °C, 5% CO2 for 24 h with increasing concentrations of synthesised HIP ([…]; GLBiochem) or native C-peptide ([…]; GLBiochem) or 50 μg DQ8-glia-α1 (control) in 96 well round-bottomed plates. To confirm HLA-DQ8-restriction, 2 μg/ml (SKW-3-ET672-1) or 50 μg/ml (all other SKW-3-TCR cell lines) C-peptide or HIP pulsed BLCL 9031 cells were blocked with a final concentration of 20 μg/ml anti-HLA-DQ monoclonal antibody (clone SPV-L3) for 3 h before stimulation (i.e. before the addition of SKW-3-TCR cell lines). T-cell activation assay were performed by mixing 1 × 10^5 SKW-3-TCR cells, SKW-3 parental cells (control) or SP3.4 (HLA-DQ8-glia-α1 restricted T cell line; control) cells with the peptide-pulsed BLCL 9031 cells or with 5 μl anti-CD3/CD28 dynabeads (Thermo Fisher Scientific) (control) at 37 °C, 5% CO2 for 20 h before antibody staining. The activated induced SKW-3-TCR T cells were washed twice with FACS buffer (Phosphate buffered saline, 10% Fetal Calf Serum (FCS; Merck)) (350 g, 5 min), and stained a mixture of 1:100 diluted V450 mouse anti-human CD3 (clone UCHT1, BD Biosciences) and APC Mouse Anti-Human CD69 (Clone FN50, BD Biosciences) for 1 h on ice in the dark. The samples were washed twice with PBS buffer (350 g, 5 min) to remove excess antibodies. Afterward, the samples were stained for live/dead cells with Zombie NIR (Biolegend) for 30 min at RT in the dark before being washed 6 times with FACS buffer (350 g, 5 min). Before data acquisition, the samples were resuspended in 100 μl of FACS buffer and analysed via flow cytometry (LSR II; BD Biosciences; BD FACSDiva-8.0.1 software). Collected data were analysed using Flowjo v10.6.0 (FlowJo), and then Prism 9 (GraphPad Software). […] Using these settings, the median fluorescence intensity (MFI) corresponding to the relative level of CD69 expressed on the SKW-3-TCR.TCR cell lines was determined using Flowjo v10.6.0 software. The MFI of CD69 were analysed by using Prism 9 (GraphPad Software). Three to six independent experiments were conducted, and all sample were performed in duplicates. Statistical significance was determined using P-values generated by t-test or one-way ANOVA multiple comparison of the MFI of no-peptide-stimulated SKW-3-TCR T cells versa the MFI of peptide-stimulated SKW-3-TCR T cells.
(§2) Supplementary Figure 1. Antigen reactivity of T cells transduced with TCRs isolated from T1D patient clones and recent onset T1D patient PBMCs. a, b Expression of CD69 on the surface of TCR transduced SKW3 cell lines stimulated overnight with C-peptide-p ulsed BLCL 9031 (top panel), or HIP-p ulsed BLCL 9031 (bottom panel). The SKW3 cell lines transduced with a TCRs isolated from primary T1D T clones and b TCRs isolated from recent onset T1D patient PBMCs (TCR name indicated above the graphs), were cultured with BLCL 9031 (no peptide) or with serial diluted concentration of peptide as indicated (grey), or 50 µg/ml C-peptide/HIP-pulsed BLCL 9031 blocked by anti-H LA-D Q mAb (clone SPV-L3; 20 µg/ml) (black), or 50 µg/ml glia-α1-p ulsed BLCL 9031 (purple; control), or 50 µg/ml C-peptide/HIP peptide only (cyan; control), or T cell lines alone (pink; control). Due to the strong reactivity of the SKW-T CR E672-1 cell line to HIP, only 2 µg of HIP was used in anti-HLA-D Q mAb blocking experiments. All samples were performed in duplicates and the black dots are presented as the mean fluorescence intensity (MFI) of average of duplicated values from three to six (n=3, n=4, n=5 or n=6) independent experiments. […]
(§3) expression. The fold increase in MFI CD69 expression was calculated by dividing the average MFI CD69 from each sample by the average MFI CD69 from BLCL 9031 (no […]
(§4) peptide). […]

[2] = test system: SKW-3 A2.13 TCR cells; experiment: CD69 upregulation, SKW-3 A2.13 TCR cells; assay type: cell-based, human; conditions: for MFI CD69: exp5
Method: as §1, §2, §3, §4

[3] = exp4, T cell +pep, 50 ug, replicate 1
[4] = exp4, T cell +pep, 50 ug, replicate 2
[5] = exp4, block, 50 ug, replicate 1
[6] = exp4, block, 50 ug, replicate 2
[7] = exp5, T cell +pep, 50 ug, replicate 1
[8] = exp5, T cell +pep, 50 ug, replicate 2
[9] = exp5, block, 50 ug, replicate 1
[10] = exp5, block, 50 ug, replicate 2
[11] = CD69 MFI, flow cytometry, peptide-pulsed BLCL 9031, 20 h

Substance: Cpeptide
- Geometric CD3 ([1]; exp4, 0.016 ug, replicate 1): 970
- MFI CD69 ([1]; exp4, 0.016 ug, replicate 1): 898
- Geometric CD3 ([1]; exp4, 0.016 ug, replicate 2): 979
- MFI CD69 ([1]; exp4, 0.016 ug, replicate 2): 906
- Geometric CD3 ([1]; exp4, 0.08 ug, replicate 1): 1058
- MFI CD69 ([1]; exp4, 0.08 ug, replicate 1): 987
- Geometric CD3 ([1]; exp4, 0.08 ug, replicate 2): 1030
- MFI CD69 ([1]; exp4, 0.08 ug, replicate 2): 964
- Geometric CD3 ([1]; exp4, 0.4 ug, replicate 1): 1103
- MFI CD69 ([1]; exp4, 0.4 ug, replicate 1): 1037
- Geometric CD3 ([1]; exp4, 0.4 ug, replicate 2): 1058
- MFI CD69 ([1]; exp4, 0.4 ug, replicate 2): 984
- Geometric CD3 ([1]; exp4, 2 ug, replicate 1): 1233
- MFI CD69 ([1]; exp4, 2 ug, replicate 1): 1175
- Geometric CD3 ([1]; exp4, 2 ug, replicate 2): 1197
- MFI CD69 ([1]; exp4, 2 ug, replicate 2): 1130
- Geometric CD3 ([1]; exp4, 10 ug, replicate 1): 1614
- MFI CD69 ([1]; exp4, 10 ug, replicate 1): 1582
- Geometric CD3 ([1]; exp4, 10 ug, replicate 2): 1577
- MFI CD69 ([1]; exp4, 10 ug, replicate 2): 1557
- Geometric CD3 ([1]; exp4, 50 ug, replicate 1): 2018
- MFI CD69 ([1]; exp4, 50 ug, replicate 1): 2047
- Geometric CD3 ([1]; exp4, 50 ug, replicate 2): 1694
- MFI CD69 ([1]; exp4, 50 ug, replicate 2): 1685
- Geometric CD3 ([1]; exp4, 100 ug, replicate 1): 3490
- MFI CD69 ([1]; exp4, 100 ug, replicate 1): 3626
- Geometric CD3 ([1]; exp4, 100 ug, replicate 2): 3657
- MFI CD69 ([1]; exp4, 100 ug, replicate 2): 3824
- Geometric CD3 [1, 3]: 739
- MFI CD69 [1, 3]: 670
- Geometric CD3 [1, 4]: 745
- MFI CD69 [1, 4]: 679
- Geometric CD3 [1, 5]: 1084
- MFI CD69 [1, 5]: 1022
- Geometric CD3 [1, 6]: 1068
- MFI CD69 [1, 6]: 1007
- Geometric CD3 ([1]; exp5, 0.016 ug, replicate 1): 1160
- MFI CD69 ([1]; exp5, 0.016 ug, replicate 1): 1101
- Geometric CD3 ([1]; exp5, 0.016 ug, replicate 2): 1175
- MFI CD69 ([1]; exp5, 0.016 ug, replicate 2): 1127
- Geometric CD3 ([1]; exp5, 0.08 ug, replicate 1): 1165
- MFI CD69 ([1]; exp5, 0.08 ug, replicate 1): 1110
- Geometric CD3 ([1]; exp5, 0.08 ug, replicate 2): 1145
- MFI CD69 ([1]; exp5, 0.08 ug, replicate 2): 1084
- Geometric CD3 ([1]; exp5, 0.4 ug, replicate 1): 1217
- MFI CD69 ([1]; exp5, 0.4 ug, replicate 1): 1166
- Geometric CD3 ([1]; exp5, 0.4 ug, replicate 2): 1219
- MFI CD69 ([1]; exp5, 0.4 ug, replicate 2): 1163
- Geometric CD3 ([1]; exp5, 2 ug, replicate 1): 1325
- MFI CD69 ([1]; exp5, 2 ug, replicate 1): 1295
- Geometric CD3 ([1]; exp5, 2 ug, replicate 2): 1288
- MFI CD69 ([1]; exp5, 2 ug, replicate 2): 1227
- Geometric CD3 ([1]; exp5, 10 ug, replicate 1): 1582
- MFI CD69 ([1]; exp5, 10 ug, replicate 1): 1562
- Geometric CD3 ([1]; exp5, 10 ug, replicate 2): 1544
- MFI CD69 ([1]; exp5, 10 ug, replicate 2): 1512
- Geometric CD3 ([1]; exp5, 50 ug, replicate 1): 2599
- MFI CD69 ([1]; exp5, 50 ug, replicate 1): 2696
- Geometric CD3 ([1]; exp5, 50 ug, replicate 2): 2645
- MFI CD69 ([1]; exp5, 50 ug, replicate 2): 2725
- Geometric CD3 ([1]; exp5, 100 ug, replicate 1): 3392
- MFI CD69 ([1]; exp5, 100 ug, replicate 1): 3527
- Geometric CD3 ([1]; exp5, 100 ug, replicate 2): 3273
- MFI CD69 ([1]; exp5, 100 ug, replicate 2): 3433
- Geometric CD3 [1, 7]: 840
- MFI CD69 [1, 7]: 793
- Geometric CD3 [1, 8]: 856
- MFI CD69 [1, 8]: 819
- Geometric CD3 [1, 9]: 761
- MFI CD69 [1, 9]: 694
- Geometric CD3 [1, 10]: 846
- MFI CD69 [1, 10]: 770
- MFI CD69 ([2]; 0.016 ug, replicate 1): 1218
- MFI CD69 ([2]; 0.016 ug, replicate 2): 1366
- MFI CD69 ([2]; 0.08 ug, replicate 1): 1349
- MFI CD69 ([2]; 0.08 ug, replicate 2): 1478
- MFI CD69 ([2]; 0.4 ug, replicate 1): 1535
- MFI CD69 ([2]; 0.4 ug, replicate 2): 1892
- MFI CD69 ([2]; 2 ug, replicate 1): 1776
- MFI CD69 ([2]; 2 ug, replicate 2): 2613
- MFI CD69 ([2]; 10 ug, replicate 1): 4442
- MFI CD69 ([2]; 10 ug, replicate 2): 4296
- MFI CD69 ([2]; 50 ug, replicate 1): 5931
- MFI CD69 ([2]; 50 ug, replicate 2): 5830
- MFI CD69 ([2]; 100 ug, replicate 1): 5697
- MFI CD69 ([2]; 100 ug, replicate 2): 6898
- MFI CD69 ([2]; T cell +pep, 50 ug, replicate 1): 712
- MFI CD69 ([2]; T cell +pep, 50 ug, replicate 2): 880
- MFI CD69 ([2]; block, 50 ug, replicate 1): 796

Substance: GQVELGGGNAVEVLK [HIP]
- sensitivity to HIP over C-peptide [1, 11]: ~ 3000 fold
- sensitivity to HIP versus C-peptide [2, 11]: five fold more sensitive to HIP than C-peptide

— paper PMC8387461, “T cell receptor recognition of hybrid insulin peptides bound to HLA-DQ8” (Nature Communications, 2021)
